{"source": "ChEMBL document CHEMBL4043162", "about": "“Synthesis of novel flavonoid alkaloids as α-glucosidase inhibitors” (Bioorg Med Chem, 2017)", "key": {"[1]": {"assay": "Inhibition of Saccharomyces cerevisiae alpha-glucosidase pre-incubated for 15 mins before p-nitrophenyl-alpha-D-glucopyranoside substrate addition and measured after 30 mins by UV spectrometry"}, "Saccharomyces cerevisiae": {"test_system": "Saccharomyces cerevisiae", "assay": "Non-competitive inhibition of Saccharomyces cerevisiae alpha-glucosidase pre-incubated for 15 mins before p-nitrophenyl-alpha-D-glucopyranoside substrate addition and measured after 30 mins by UV spectrometry based Lineweaver-Burk plot"}, "[2]": {"assay": "Non-competitive inhibition of Saccharomyces cerevisiae alpha-glucosidase pre-incubated for 15 mins before p-nitrophenyl-alpha-D-glucopyranoside substrate addition and measured after 30 mins by UV spectrometry based Dixon plot"}}, "note": "Activity calls are given as the source filed them. The rule behind the calls is not given here."}
{"smiles": "CCN(CC)Cc1c(O)cc2oc(-c3ccccc3)cc(=O)c2c1O", "values": [{"measurement": "IC50", "setting": "[1]", "value": 217, "unit": "µM"}]}
{"smiles": "O=c1cc(-c2ccccc2)oc2cc(O)c(CN3CCc4ccccc4C3)c(O)c12", "values": [{"measurement": "IC50", "setting": "[1]", "value": "> 500", "unit": "µM"}]}
{"smiles": "O=C1CC(c2ccc(O)cc2)Oc2cc(O)c(CN3CCc4ccccc4C3)c(O)c21", "note": "(configuration not stated)", "values": [{"measurement": "IC50", "setting": "[1]", "value": 23.4, "unit": "µM"}, {"measurement": "inhibition", "setting": "Saccharomyces cerevisiae", "value": "Active"}, {"measurement": "Ki", "setting": "[2]", "value": 37.8, "unit": "µM"}]}
{"smiles": "O=c1cc(-c2ccc(O)cc2)oc2cc(O)c(C3CCCCN3)c(O)c12", "note": "(configuration not stated)", "values": [{"measurement": "IC50", "setting": "[1]", "value": 293, "unit": "µM"}]}
{"smiles": "O=c1cc(-c2ccccc2)oc2cc(O)c(CN3CCCCC3)c(O)c12", "values": [{"measurement": "IC50", "setting": "[1]", "value": "> 500", "unit": "µM"}]}
{"smiles": "O=c1cc(-c2ccccc2)oc2cc(O)c(C3CCCCN3)c(O)c12", "note": "(configuration not stated)", "values": [{"measurement": "IC50", "setting": "[1]", "value": "> 500", "unit": "µM"}]}
{"smiles": "O=C1CC(c2ccc(O)cc2)Oc2cc(O)c(CN3CCN(CCO)CC3)c(O)c21", "note": "(configuration not stated)", "values": [{"measurement": "IC50", "setting": "[1]", "value": 521, "unit": "µM"}]}
{"smiles": "CCOC(=O)N1CCN(Cc2c(O)cc3c(c2O)C(=O)CC(c2ccc(O)cc2)O3)CC1", "note": "(configuration not stated)", "values": [{"measurement": "IC50", "setting": "[1]", "value": 65.1, "unit": "µM"}]}
{"smiles": "CCOC(=O)N1CCN(Cc2c(O)c(CN3CCN(C(=O)OCC)CC3)c3oc(-c4ccccc4)cc(=O)c3c2O)CC1", "values": [{"measurement": "IC50", "setting": "[1]", "value": "> 500", "unit": "µM"}]}
{"smiles": "Oc1ccc(C2CCc3c(O)cc(O)c(C4CCCCN4)c3O2)cc1", "note": "(configuration not stated)", "values": [{"measurement": "IC50", "setting": "[1]", "value": "> 500", "unit": "µM"}]}
{"smiles": "COc1ccc(C2CC(=O)c3c(cc(O)c(C4CCCCN4)c3O)O2)cc1O", "note": "(configuration not stated)", "values": [{"measurement": "IC50", "setting": "[1]", "value": "> 500", "unit": "µM"}]}
{"smiles": "Oc1ccc(C2CCc3c(cc(O)c(C4CCCCN4)c3O)O2)cc1", "note": "(configuration not stated)", "values": [{"measurement": "IC50", "setting": "[1]", "value": "> 500", "unit": "µM"}]}
{"smiles": "CCOC(=O)N1CCN(Cc2c(O)cc3oc(-c4ccccc4)cc(=O)c3c2O)CC1", "values": [{"measurement": "IC50", "setting": "[1]", "value": "> 500", "unit": "µM"}]}
{"smiles": "O=C1CC(c2ccc(O)cc2)Oc2cc(O)c(CN3CCCCC3)c(O)c21", "note": "(configuration not stated)", "values": [{"measurement": "IC50", "setting": "[1]", "value": 82.8, "unit": "µM"}]}
{"smiles": "O=C1CC(c2ccc(O)cc2)Oc2cc(O)c(C3CCCCN3)c(O)c21", "note": "(configuration not stated)", "values": [{"measurement": "IC50", "setting": "[1]", "value": 249, "unit": "µM"}]}
{"smiles": "O=C1c2c(cc(O)c(C3CCCCN3)c2O)OC(c2ccc(O)c(O)c2)C1O", "note": "(configuration not stated)", "values": [{"measurement": "IC50", "setting": "[1]", "value": "> 500", "unit": "µM"}]}
{"smiles": "O=c1cc(-c2ccccc2)oc2c(C3CCCCN3)c(O)cc(O)c12", "note": "(configuration not stated)", "values": [{"measurement": "IC50", "setting": "[1]", "value": "> 500", "unit": "µM"}]}
{"smiles": "COc1ccc(-c2coc3c(CN4CCCCC4)c(O)ccc3c2=O)cc1", "values": [{"measurement": "IC50", "setting": "[1]", "value": "> 500", "unit": "µM"}]}
{"smiles": "O=c1cc(-c2ccccc2)oc2cc(O)c(CN3CCOCC3)c(O)c12", "values": [{"measurement": "IC50", "setting": "[1]", "value": "> 500", "unit": "µM"}]}
{"smiles": "O=c1cc(-c2ccccc2)oc2c(CN3CCN(CCO)CC3)c(O)cc(O)c12", "values": [{"measurement": "IC50", "setting": "[1]", "value": "> 500", "unit": "µM"}]}
{"smiles": "CCOC(=O)c1ccc(N2CCN(Cc3c(O)cc4c(c3O)C(=O)CC(c3ccc(O)cc3)O4)CC2)cc1", "note": "(configuration not stated)", "values": [{"measurement": "IC50", "setting": "[1]", "value": 4.1, "unit": "µM"}, {"measurement": "inhibition", "setting": "Saccharomyces cerevisiae", "value": "Active"}, {"measurement": "Ki", "setting": "[2]", "value": 13.2, "unit": "µM"}]}
{"smiles": "O=C1CC(c2ccc(O)cc2)Oc2cc(O)c(CN3CCOCC3)c(O)c21", "note": "(configuration not stated)", "values": [{"measurement": "IC50", "setting": "[1]", "value": 202, "unit": "µM"}]}
{"smiles": "O=c1cc(-c2ccccc2)oc2cc(O)c(CN3CCN(CCO)CC3)c(O)c12", "values": [{"measurement": "IC50", "setting": "[1]", "value": "> 500", "unit": "µM"}]}
